Reference: patent US20240240209A1, “SYNTHESIS OF ENANTIOPURE CIS-A-IRONE FROM A RENEWABLE CARBON SOURCE” (Agency for Science, Technology and Research, priority 2021, published 2024)
Positions count from the first letter of the chain named.

Tests used:
pMT7 = pMT7 (Streptomyces blastmyceticus, UniProt A0A077K7L1, A202L/L180A/L273V/S182E/Y200F/Y65F); assay: biochemical
Experimental: (§1) It was calculated by dividing the pMT7 activity where no additive was added. […] It was calculated by dividing the pMT7 and pMT10 activity where no additive was added. […] All the purified enzyme reactions were done in triplicates. […] The bar chart represents the mean value of replicated reactions.
The steady-state kinetic parameters of pMT7 were determined (Table 3). […] Since pMT7 is an hexamer in solution^10, its oligomeric state before and after the reaction was examined.
(§2) Following enzyme purification, a 100 μl enzymatic reaction was setup with a final concentration of 0.5 mg/ml of enzyme, 40 mg/L psi-ionone, 0.2 mM SAM, 100 mM Tris (pH 7), 10 mM MgCl2 and 15 mM NaCl. The reaction was done in 0.2 ml PCR strips and incubated at 28° C., 1200 rpm overnight. Alongside, a control without enzyme (with 40% glycerol only) was included as negative control. The next day, cis-α-irone was extracted with 100 μl of ethyl acetate and 50 μl organic layer taken for GCMS analysis. For enzyme characterization, similar enzymatic reaction was performed, with varying concentration of psi-ionone (2-40 mg/L) and SAM (10-100 μM), and the reaction was stopped after 2 h incubation at 28° C. to ensure the enzymatic conversion is still within linear range.

[1] = molecular target: T1, Streptomyces blastmyceticus O-methyltransferase TleD (pMT1, SEQ ID No. 3) variant pMT7, Y200F S182E L273V L180A A202L Y65F, SEQ ID No. 9 (Streptomyces blastmyceticus, UniProt A0A077K7L1, A202L/L180A/L273V/S182E/Y200F/Y65F); assay: Steady-state kinetics of purified pMT7; assay type: biochemical; conditions: pH 7, 28° C., 2 h
T1 sequence (A0A077K7L1 1-289 Y65F/L180A/S182E/Y200F/A202L/L273V): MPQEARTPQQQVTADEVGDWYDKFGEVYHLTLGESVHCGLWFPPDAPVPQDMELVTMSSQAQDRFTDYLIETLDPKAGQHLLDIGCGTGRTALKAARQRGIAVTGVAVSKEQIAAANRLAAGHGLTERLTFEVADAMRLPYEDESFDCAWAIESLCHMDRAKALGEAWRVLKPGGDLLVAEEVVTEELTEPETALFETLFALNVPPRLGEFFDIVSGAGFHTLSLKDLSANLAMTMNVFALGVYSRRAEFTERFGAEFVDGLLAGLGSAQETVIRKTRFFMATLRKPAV
Experimental: (§3) His-tag protein purification was carried out according to the manufacturer's instruction (Cube Biotech). For each enzyme, it was overexpressed in 200 ml of ZYM autoinduction media with 5 mM lactose at 20° C. for 36 hrs. Following that, cells were pelleted and resuspended with 10 ml of His-binding buffer (50 mM Tris, pH 8, 0.5M NaCl and 20 mM imidazole) supplemented with 1 mg/ml lysozyme and 3 U/ml of benzonase nuclease (Merck) and treated for 1 hour (hr) at 20° C., 300 rpm. The cells were further lysed by 2 cycles of freeze-thawing with freezing at −80° C. for 4 hrs and thawing at room temperature for 45 mins. The supernatant (soluble fraction) was obtained by centrifuging at 15,000 g for 30 mins at 4° C. […] Protein quantification and purity were determined through micro BCA assay (Pierce) and running SDS-PAGE, respectively.
(§4) To determine the purified enzyme kinetics and in vivo production, the reaction mixture was extracted with 0.5× or 1× volume of ethyl acetate and the organic phase was diluted appropriately before subjected to GCMS analysis. The samples were analyzed on an Agilent Intuvo 9000 GC system equipped with Agilent DB-WAX Ultra Inert Intuvo GC column (30 m×250 μm×0.25 μm) and Agilent 5977B mass spectrometry with high efficiency source. […] The concentration of psi-ionone and irone were calculated by interpolating with a standard curve prepared by synthetic standards.

[2] = molecular target: T2, Streptomyces blastmyceticus O-methyltransferase TleD (pMT1, SEQ ID No. 3) variant pMT10, Y200F S182E L273V L180A A202L Y65F C156A T91P, SEQ ID No. 12 (Streptomyces blastmyceticus, UniProt A0A077K7L1, A202L/C156A/L180A/L273V/S182E/T91P/Y200F/Y65F); assay: Steady-state kinetics of purified pMT10; assay type: biochemical; conditions: pH 7, 28° C., 2 h, psi-ionone 2-40 mg/L, SAM 10-100 μM
T2 sequence (A0A077K7L1 1-289 Y65F/T91P/C156A/L180A/S182E/Y200F/A202L/L273V): T1 sequence (A0A077K7L1 1-289 Y65F/L180A/S182E/Y200F/A202L/L273V) with T91P, C156A
Experimental: as §3, §4

pMT6 = assay: Methylation and cyclization of structurally similar terpenoids by E. coli cell lysate overexpressing pMT6; assay type: biochemical, Streptomyces blastmyceticus; conditions: GFP lysate as control
Experimental: Using E. coli cell lysate overexpressing pMT6, a range of structurally similar terpenoids for methylation and cyclization reaction was assayed (FIG. 21a). E. coli lysate overexpressing green fluorescence protein was used as a control. […] Citral was not stable and was reduced to geraniol in the presence of cell lysate. […] Compound identity was searched against the National Institute of Standards and Technology (NIST) library. […] Lastly, for the monoterpene ketone, geranylacetone, with saturated C7-C8 bond, multiple methylated products were detected based on the molecular ion.

pMT10 = pMT10 (Streptomyces blastmyceticus, UniProt A0A077K7L1, A202L/C156A/L180A/L273V/S182E/T91P/Y200F/Y65F); assay: biochemical
pMT10, sequence (A0A077K7L1 entry or part of it Y65F/T91P/C156A/L180A/S182E/Y200F/A202L/L273V): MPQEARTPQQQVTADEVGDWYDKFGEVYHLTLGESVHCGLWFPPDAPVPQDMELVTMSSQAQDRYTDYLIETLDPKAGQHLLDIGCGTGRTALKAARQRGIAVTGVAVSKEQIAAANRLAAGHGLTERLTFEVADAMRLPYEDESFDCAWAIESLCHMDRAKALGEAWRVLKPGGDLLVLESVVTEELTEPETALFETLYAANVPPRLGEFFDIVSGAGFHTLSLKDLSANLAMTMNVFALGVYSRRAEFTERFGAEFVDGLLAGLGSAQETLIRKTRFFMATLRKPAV
Experimental: as §1, §2

[3] = SAH analogues (0-200 μM) or excess α-irone supplemented

pMT7, sequence (A0A077K7L1 entry or part of it Y65F/L180A/S182E/Y200F/A202L/L273V): as the sequence (A0A077K7L1 entry or part of it Y65F/T91P/C156A/L180A/S182E/Y200F/A202L/L273V) above

SMILES | effect on pMT7 methyltransferase activity (pMT7; [3]) | methylated products in pMT6 reaction (SPME-GCMS) (pMT6) | other results
CC(=O)/C=C/C1C(C)=CCC(C)C1(C)C (stereo not drawn) [α-irone] | did not alter the methyltransferase activity significantly |  | 
C[S+](CC[C@H](N)C(=O)[O-])C[C@H]1O[C@@H](n2cnc3c(N)ncnc32)[C@H](O)[C@@H]1O (stereo partly drawn) [SAM, S-adenosylmethionine] |  |  | Km ([1]; psi-ionone 2-40 mg/L, SAM 10-100 μM): 54.6 µM; Km [2]: 30.5 ± 1.3 µM
Nc1ncnc2nc[nH]c12 [adenine] | did not alter the methyltransferase activity significantly |  | 
CC(=O)/C=C/C=C(\C)CCC=C(C)C [psi-ionone] |  |  | kcat ([1]; Table 3): 4.4 ± 0.2 ×10^3 h^−1
C=CC(C)(O)CCC=C(C)C (stereo not drawn) [linalool] |  | detected methylated products | 
CC(C)=CCCC(C)=CC=O [Citral] |  | not stable | 
CC(C)=CCC/C(C)=C/CO [geraniol] |  | detected methylated products | 
CC(=O)CC/C=C(\C)CCC=C(C)C [geranylacetone] |  | detected methylated products | 
N[C@@H](CCS)C(=O)O [homocysteine] | did not alter the methyltransferase activity significantly |  | 
Nc1ncnc2c1ncn2[C@@H]1O[C@H](CSCC[C@H](N)C(=O)O)[C@@H](O)[C@H]1O [SAH, S-adenosyl-L-homocysteine] |  |  | IC50 (pMT10): 3.1 µM; IC50 (pMT7): 4.9 µM; effect on pMT7 activity (pMT7; 2 μM SAH supplemented): led to a reduction in pMT7 activity; effect on pMT7 methyltransferase activity (pMT7; 20 µM SAH supplemented): nearly abolished the methyltransferase activity
Nc1ncnc2c1ncn2[C@@H]1O[C@H](CO)[C@@H](O)[C@H]1O [adenosine] | did not alter the methyltransferase activity significantly |  | 
